Measurements from US20250388553A1 (Incyte Corporation, priority 2018, published 2025).
Where a name gives a salt, the structure may show the parent alone.

How the values were obtained:
[1] = biological target: PI3Kδ (p1106/p85a) Recombinant Human Protein (Homo sapiens (Human), UniProt O00329); assay: PI3Kδ scintillation proximity assay; assay type: biochemical; details: Table A1; scintillation proximity assay, recombinant human PI3Kδ
Source text: Example C. PI3Kδ Scintillation Proximity Assay
(§1) Materials: [γ-^33P]ATP (10 mCi/mL) and Wheat Germ Agglutinin (WGA) YSi SPA Scintillation Beads was purchased from Perkin Elmer (Waltham, MA). Lipid kinase substrate, D-myo-Phosphatidylinositol 4,5-bisphosphate (PtdIns(4,5)P2)D (+)-sn-1,2-di-O-octanoylglyceryl, 3-O-phospho linked (PIP2), CAS 204858-53-7, was purchased from Echelon Biosciences (Salt Lake City, UT). PI3Kδ (p1106/p85a) Recombinant Human Protein was purchased from Eurofins (St Charles, MO). ATP, MgCl2, DTT, EDTA, MOPS and CHAPS were purchased from Sigma Aldrich (St. Louis, MO).
(§2) The kinase reaction was conducted in polystyrene 384-well Greiner Bio-one white plate from Thermo Fisher Scientific in a final volume of 25 μL. Inhibitors were first diluted serially in DMSO and added to the plate wells before the addition of other reaction components. The final concentration of DMSO in the assay was 2%. The PI3Kδ assay was carried out at room temperature in 20 mM MOPS, pH 6.7, 10 mM MgCl2, 5 mM DTT and CHAPS 0.03%. Reactions were initiated by the addition of ATP, the final reaction mixture consisted of 20 µM […], 0.5 μCi [γ-^33P]ATP, 3.4 nM PI3Kδ. Reactions were incubated for 120 min and terminated by the addition of 40 μL SPA beads suspended in quench buffer: 163 mM potassium phosphate pH 7.8, 20% glycerol, 25 mM EDTA. The final concentration of SPA beads is 1.0 mg/mL. After the plate sealing, plates were shaken overnight at room temperature and centrifuged at 1500 rpm for 10 min, the radioactivity of the product was determined by scintillation counting on Topcount (PerkinElmer). IC50 determination was performed by fitting the curve of percent of the solvent control activity versus the log of the inhibitor concentration using the GraphPad Prism 6.0 software.
(§3) The compounds of the Examples were tested in the assays described in Examples A, B and C and found to have the IC50s are shown in Tables A1, A2, A3 and A4.

[2] = biological target: PI3Kγ (p110γ) Recombinant Human Protein (Homo sapiens (Human), UniProt P48736); assay: PI3K-γ scintillation proximity assay; assay type: biochemical; details: Table A1; scintillation proximity assay, recombinant human p110γ
Source text: Example B. PI3K-γ Scintillation Proximity Assay
as §1, with “PI3Kγ (p110γ)” for “PI3Kδ (p1106/p85a)”, “Life technology (Grand Island, NY).” for “Eurofins (St Charles, MO).”
as §2, with “[…].” for “μL.”, “PI3Kγ” for “PI3Kδ”, “13” for “3.4”, “PI3Kγ.” for “PI3Kδ.”, “(Perkin-Elmer).” for “(PerkinElmer).”
as §3

Chain of PI3Kδ (p1106/p85a) Recombinant Human Protein (O00329 whole entry): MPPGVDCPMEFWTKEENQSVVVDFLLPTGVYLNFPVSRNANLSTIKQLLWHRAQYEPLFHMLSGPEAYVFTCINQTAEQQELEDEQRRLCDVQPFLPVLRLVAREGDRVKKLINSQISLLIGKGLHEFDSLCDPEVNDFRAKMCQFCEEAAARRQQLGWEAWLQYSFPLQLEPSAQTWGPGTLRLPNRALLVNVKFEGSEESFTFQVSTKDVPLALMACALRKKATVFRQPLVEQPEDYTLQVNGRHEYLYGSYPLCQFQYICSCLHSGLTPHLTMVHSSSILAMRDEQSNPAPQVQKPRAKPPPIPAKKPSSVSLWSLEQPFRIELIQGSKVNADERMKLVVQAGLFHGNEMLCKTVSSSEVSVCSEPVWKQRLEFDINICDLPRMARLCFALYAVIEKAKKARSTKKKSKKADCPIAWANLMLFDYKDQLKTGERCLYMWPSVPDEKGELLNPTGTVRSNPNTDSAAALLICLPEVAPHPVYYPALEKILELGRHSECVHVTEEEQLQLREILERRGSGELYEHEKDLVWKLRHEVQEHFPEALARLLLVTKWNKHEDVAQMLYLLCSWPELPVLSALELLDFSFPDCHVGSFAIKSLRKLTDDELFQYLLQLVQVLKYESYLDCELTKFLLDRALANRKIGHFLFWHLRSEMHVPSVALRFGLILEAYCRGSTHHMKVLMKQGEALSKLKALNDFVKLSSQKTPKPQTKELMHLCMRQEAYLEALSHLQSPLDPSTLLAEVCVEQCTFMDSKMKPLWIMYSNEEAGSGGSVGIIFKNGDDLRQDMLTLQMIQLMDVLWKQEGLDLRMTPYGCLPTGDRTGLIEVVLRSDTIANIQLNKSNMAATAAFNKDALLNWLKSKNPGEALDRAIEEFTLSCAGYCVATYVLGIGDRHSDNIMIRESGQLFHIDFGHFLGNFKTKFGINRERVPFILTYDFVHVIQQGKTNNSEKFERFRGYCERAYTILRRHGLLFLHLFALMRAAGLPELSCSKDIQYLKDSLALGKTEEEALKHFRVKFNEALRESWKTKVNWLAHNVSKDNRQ
Chain of PI3Kδ (p1106/p85a) Recombinant Human Protein (P27986 whole entry partner): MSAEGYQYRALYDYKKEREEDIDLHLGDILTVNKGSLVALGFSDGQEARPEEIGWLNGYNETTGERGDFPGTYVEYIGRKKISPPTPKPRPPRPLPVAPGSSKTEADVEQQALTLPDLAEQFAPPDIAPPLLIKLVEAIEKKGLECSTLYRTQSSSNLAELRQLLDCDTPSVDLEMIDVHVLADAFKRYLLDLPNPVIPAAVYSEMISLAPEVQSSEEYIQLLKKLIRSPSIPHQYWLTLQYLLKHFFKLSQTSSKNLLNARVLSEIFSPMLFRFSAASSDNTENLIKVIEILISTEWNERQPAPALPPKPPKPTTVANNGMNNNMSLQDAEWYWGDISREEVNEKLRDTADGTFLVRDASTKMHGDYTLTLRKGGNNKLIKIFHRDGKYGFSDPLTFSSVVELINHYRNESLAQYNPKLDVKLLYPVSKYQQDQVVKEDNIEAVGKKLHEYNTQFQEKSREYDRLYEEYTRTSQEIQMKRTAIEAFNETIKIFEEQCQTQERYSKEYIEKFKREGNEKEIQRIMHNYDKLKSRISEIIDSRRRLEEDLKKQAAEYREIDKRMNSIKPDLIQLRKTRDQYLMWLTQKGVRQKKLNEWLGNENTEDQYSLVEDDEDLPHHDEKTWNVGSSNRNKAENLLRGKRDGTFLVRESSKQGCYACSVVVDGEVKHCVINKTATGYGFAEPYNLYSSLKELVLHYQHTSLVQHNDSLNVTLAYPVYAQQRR
Chain of PI3Kγ (p110γ) Recombinant Human Protein (P48736 whole entry): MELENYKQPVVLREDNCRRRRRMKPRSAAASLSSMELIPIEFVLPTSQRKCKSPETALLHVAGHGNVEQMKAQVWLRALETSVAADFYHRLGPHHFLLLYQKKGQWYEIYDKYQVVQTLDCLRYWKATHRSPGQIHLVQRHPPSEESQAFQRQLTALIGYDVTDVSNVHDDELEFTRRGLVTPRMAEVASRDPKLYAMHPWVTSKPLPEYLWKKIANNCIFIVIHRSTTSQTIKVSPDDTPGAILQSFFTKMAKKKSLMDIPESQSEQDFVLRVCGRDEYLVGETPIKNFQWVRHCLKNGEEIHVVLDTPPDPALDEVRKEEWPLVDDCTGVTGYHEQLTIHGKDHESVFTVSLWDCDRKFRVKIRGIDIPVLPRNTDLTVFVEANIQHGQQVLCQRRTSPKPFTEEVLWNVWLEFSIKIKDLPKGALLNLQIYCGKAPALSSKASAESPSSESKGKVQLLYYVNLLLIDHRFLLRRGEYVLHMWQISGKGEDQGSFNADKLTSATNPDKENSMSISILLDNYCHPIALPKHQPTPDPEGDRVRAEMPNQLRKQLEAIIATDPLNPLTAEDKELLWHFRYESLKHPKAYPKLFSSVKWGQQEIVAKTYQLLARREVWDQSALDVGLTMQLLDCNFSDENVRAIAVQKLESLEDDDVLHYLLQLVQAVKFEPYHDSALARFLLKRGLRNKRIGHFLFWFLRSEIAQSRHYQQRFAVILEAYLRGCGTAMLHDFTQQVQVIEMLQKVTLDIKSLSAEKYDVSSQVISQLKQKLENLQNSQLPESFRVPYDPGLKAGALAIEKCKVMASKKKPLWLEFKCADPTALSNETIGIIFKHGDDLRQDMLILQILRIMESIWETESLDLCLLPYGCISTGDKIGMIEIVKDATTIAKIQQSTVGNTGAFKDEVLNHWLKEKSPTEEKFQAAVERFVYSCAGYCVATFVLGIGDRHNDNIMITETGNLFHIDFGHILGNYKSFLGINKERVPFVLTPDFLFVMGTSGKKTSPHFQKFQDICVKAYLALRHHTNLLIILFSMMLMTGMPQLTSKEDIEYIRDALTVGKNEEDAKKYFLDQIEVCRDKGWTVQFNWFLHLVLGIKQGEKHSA

Structure (SMILES)	IC50 [1]	IC50 [2]
Cc1ccc(C(O)(C(N)=O)C(F)(F)F)cc1-c1cnc(N)c(C(=O)N[C@@H]2CCCOC2)n1 (stereo partly drawn) [Example 9, 3-amino-6-(5-(3-amino-1,1,1-trifluoro-2-hydroxy-3-oxopropan-2-yl)-2-methylphenyl)-N-((R)-tetrahydro-2H-pyran-3-yl)pyrazine-2-carboxamide trifluoroacetate]	< 100 nM	< 100 nM
Cc1ccc(C(O)(C(N)=O)C(F)(F)F)cc1-c1cnc(N)c(C(=O)N[C@H]2CCCOC2)n1 (stereo partly drawn) [Example 10, 3-amino-6-(5-(3-amino-1,1,1-trifluoro-2-hydroxy-3-oxopropan-2-yl)-2-methylphenyl)-N-((S)-tetrahydro-2H-pyran-3-yl)pyrazine-2-carboxamide trifluoroacetate]	< 100 nM	< 100 nM
Cc1ccc(C(O)(C(N)=O)C(F)(F)F)cc1-c1cnc(N)c(C(=O)N[C@H]2CCOC2)n1 (stereo partly drawn) [Example 11, 3-amino-6-(5-(3-amino-1,1,1-trifluoro-2-hydroxy-3-oxopropan-2-yl)-2-methylphenyl)-N-((S)-tetrahydrofuran-3-yl)pyrazine-2-carboxamide trifluoroacetate]	< 100 nM	< 100 nM
Cc1ccc(C(O)(C(N)=O)C(F)(F)F)cc1-c1cnc(N)c(C(=O)NCC2(C#N)CCC2)n1 (centres unmarked) [Example 16, 3-amino-6-(5-(3-amino-1,1,1-trifluoro-2-hydroxy-3-oxopropan-2-yl)-2-methylphenyl)-N-((1-cyanocyclobutyl)methyl)pyrazine-2-carboxamide trifluoroacetate]	< 100 nM	< 100 nM
COC(C)(C)CNC(=O)c1nc(-c2cc(C(O)(C(N)=O)C(F)(F)F)ccc2C)cnc1N (centres unmarked) [Example 21, 3-amino-6-(5-(3-amino-1,1,1-trifluoro-2-hydroxy-3-oxopropan-2-yl)-2-methylphenyl)-N-(2-methoxy-2-methylpropyl)pyrazine-2-carboxamide trifluoroacetate]	< 100 nM	< 100 nM
Cc1ccc(C(O)(C(N)=O)C(F)(F)F)cc1-c1cnc(N)c(C(=O)NC23CCC(C#N)(C2)C3)n1 (centres unmarked) [Example 24, 3-amino-6-(5-(3-amino-1,1,1-trifluoro-2-hydroxy-3-oxopropan-2-yl)-2-methylphenyl)-N-(4-cyanobicyclo[2.1.1]hexan-1-yl)pyrazine-2-carboxamide trifluoroacetate]	< 100 nM	< 100 nM
Cc1ccc(C(O)(C(N)=O)C(F)(F)F)cc1-c1cnc(N)c(C(=O)NC23CCC(C#N)(CC2)CC3)n1 (centres unmarked) [Example 25, 3-amino-6-(5-(3-amino-1,1,1-trifluoro-2-hydroxy-3-oxopropan-2-yl)-2-methylphenyl)-N-(4-cyanobicyclo[2.2.2]octan-1-yl)pyrazine-2-carboxamide trifluoroacetate]	< 100 nM	< 100 nM
Cc1ccc(C(O)(C(N)=O)C(F)(F)F)cc1-c1cnc(N)c(C(=O)N2CCC2(C)C)n1 (centres unmarked) [Example 27, 2-(3-(5-amino-6-(2,2-dimethylazetidine-1-carbonyl)pyrazin-2-yl)-4-methylphenyl)-3,3,3-trifluoro-2-hydroxypropanamide]	< 100 nM	< 100 nM
Cc1ccc(C(O)(C(N)=O)C(F)(F)F)cc1-c1cnc(N)c(C(=O)N2CCc3cccnc32)n1 (centres unmarked) [Example 28, 2-(3-(5-amino-6-(2,3-dihydro-1H-pyrrolo[2,3-b]pyridine-1-carbonyl)pyrazin-2-yl)-4-methylphenyl)-3,3,3-trifluoro-2-hydroxypropanamide]	100 to 500 nM	< 100 nM
CCNC(=O)c1nc(-c2cc(C(O)(C(N)=O)C(F)F)ccc2C)cnc1N (centres unmarked) [Example 32, 3-amino-6-(5-(1-amino-3,3-difluoro-2-hydroxy-1-oxopropan-2-yl)-2-methylphenyl)-N-ethylpyrazine-2-carboxamide]	< 100 nM	< 100 nM
Cc1ccc(C(O)(C(N)=O)C(F)F)cc1-c1cnc(N)c(C(=O)NCC2(C#N)CC2)n1 (centres unmarked) [Example 33, 3-amino-6-(5-(1-amino-3,3-difluoro-2-hydroxy-1-oxopropan-2-yl)-2-methylphenyl)-N-((1-cyanocyclopropyl)methyl)pyrazine-2-carboxamide]	< 100 nM	< 100 nM
Cc1ccc(C(O)(C(N)=O)C(F)F)cc1-c1cnc(N)c(C(=O)NC2CCC(F)(F)CC2)n1 (centres unmarked) [Example 34, 3-amino-6-(5-(1-amino-3,3-difluoro-2-hydroxy-1-oxopropan-2-yl)-2-methylphenyl)-N-(4,4-difluorocyclohexyl)pyrazine-2-carboxamide]	< 100 nM	< 100 nM
Cc1ccc(C(O)(C(N)=O)C(F)F)cc1-c1cnc(N)c(C(=O)NC(C)(C)CO)n1 (centres unmarked) [Example 35, 3-amino-6-(5-(1-amino-3,3-difluoro-2-hydroxy-1-oxopropan-2-yl)-2-methylphenyl)-N-(1-hydroxy-2-methylpropan-2-yl)pyrazine-2-carboxamide]	< 100 nM	< 100 nM

Results, then the molecule that gave them:

IC50 [1]	IC50 [2]	Structure (SMILES)
< 100 nM	< 100 nM	Cc1ccc(C(O)(C(N)=O)C(F)(F)F)cc1-c1cnc(N)c(C(=O)N[C@@H](C)CO)n1 (stereo partly drawn) [Example 12, 3-amino-6-(5-(3-amino-1,1,1-trifluoro-2-hydroxy-3-oxopropan-2-yl)-2-methylphenyl)-N-((S)-1-hydroxypropan-2-yl)pyrazine-2-carboxamide]
< 100 nM	< 100 nM	Cc1ccc(C(O)(C(N)=O)C(F)(F)F)cc1-c1cnc(N)c(C(=O)NC(C)(C)CO)n1 (centres unmarked) [Example 13, 3-Amino-6-(5-(3-amino-1,1,1-trifluoro-2-hydroxy-3-oxopropan-2-yl)-2-methylphenyl)-N-(1-hydroxy-2-methylpropan-2-yl)pyrazine-2-carboxamide]
< 100 nM	< 100 nM	Cc1ccc(C(O)(C(N)=O)C(F)(F)F)cc1-c1cnc(N)c(C(=O)NCCC#N)n1 (centres unmarked) [Example 14, 3-amino-6-(5-(3-amino-1,1,1-trifluoro-2-hydroxy-3-oxopropan-2-yl)-2-methylphenyl)-N-(2-cyanoethyl)pyrazine-2-carboxamide trifluoroacetate]
< 100 nM	< 100 nM	Cc1ccc(C(O)(C(N)=O)C(F)(F)F)cc1-c1cnc(N)c(C(=O)NCC(C)(C)C#N)n1 (centres unmarked) [Example 15, 3-amino-6-(5-(3-amino-1,1,1-trifluoro-2-hydroxy-3-oxopropan-2-yl)-2-methylphenyl)-N-(2-cyano-2-methylpropyl)pyrazine-2-carboxamide trifluoroacetate]
< 100 nM	< 100 nM	CC[C@@H](CC#N)NC(=O)c1nc(-c2cc(C(O)(C(N)=O)C(F)(F)F)ccc2C)cnc1N (stereo partly drawn) [Example 20, 3-amino-6-(5-(3-amino-1,1,1-trifluoro-2-hydroxy-3-oxopropan-2-yl)-2-methylphenyl)-N-((S)-1-cyanobutan-2-yl)pyrazine-2-carboxamide trifluoroacetate]
< 100 nM	< 100 nM	Cc1ccc(C(O)(C(N)=O)C(F)(F)F)cc1-c1cnc(N)c(C(=O)NC23CC(C#N)(C2)C3)n1 (centres unmarked) [Example 23, 3-amino-6-(5-(3-amino-1,1,1-trifluoro-2-hydroxy-3-oxopropan-2-yl)-2-methylphenyl)-N-(3-cyanobicyclo[1.1.1]pentan-1-yl)pyrazine-2-carboxamide trifluoroacetate]
